Data taken from article PMC6934184, “Selective DNA-PKcs inhibition extends the therapeutic index of localized radiotherapy and chemotherapy” (The Journal of Clinical Investigation, 2019).

Molecular target: DNA-PK (Homo sapiens, UniProt P78527)
Test: radiation-induced phospho-DNA-PK Ser2056 in MCF7 cells, Western blot
Assay type: cell-based
Design: endogenous in cells; host or cells: MCF7
Conditions: 1 h pretreatment, 30 min after 10 Gy IR, read-out: IC50, radiation-induced activation of DNA-PK (phospho–DNA-PK Ser2056)
Description: Exponentially growing MCF7 cells were exposed to a range of concentrations of NU5455 and NU7441 (0.03–10 μM) for 1 hour. To assess the ability of NU5455 and NU7441 to inhibit autophosphorylation of DNA-PKcs at Ser2056, cells were treated with 10 Gy irradiation and incubated for 30 minutes. Alternatively, to investigate the effects of NU5455 and NU7441 against PI3K-dependent phosphorylation of AKT at Ser473, cells were treated with 50 ng/mL insulin-like growth factor-1 (IGF-1; Invitrogen) for 30 minutes. Cell lysates were prepared for the detection of p–DNA-PKcs Ser2056 and total DNA-PKcs, or p–AKT Ser473 and total AKT, respectively, using Western blotting. […]
Protein lysates were quantified using the Pierce BCA Protein Assay (ThermoFisher). […]
Membranes were then washed in TBST and incubated with HRP-conjugated goat anti-mouse or anti-rabbit antibodies (P0447 and P0448 respectively, Dako) in 5% (w/v) milk/TBST at room temperature for 1-2 hours. Conjugates were detected using Clarity Western ECL Substrate (BioRad) and chemiluminescence imaged using the Fuji LAS-3000 Luminescent Image Analyzer System (Fujifilm). […]
Alternatively, basal pAKT Ser473 levels were subtracted from all other pAKT bands, and pAKT band intensity calculated relative to total AKT expression and given as a percentage relative to IGF-1 stimulated, DMSO-treated cells. […]

CN(C(=O)CN1CCOCC1)c1ccc2sc3c(-c4cccc5c(=O)cc(N6CC7CCC(C6)O7)oc45)cccc3c2c1 [NU5455]
IC50: 168 nM
